Changes are numbered by the printed parent chain. Each block holds one compound with its values, some of them ahead of it.
Columns and labels:
wild type TNF-R1 = biological target: T1, wild type TNF-R1 (Homo sapiens, UniProt P19438); assay: Surface plasmon resonance, TNF-α binding to wild type TNF-R1; settings: SPR
T1 construct: The ectodomain of wild type TNF receptor 1 was obtained by PCR from pKP13; made in house
T1 sequence (P19438 30-211 limits assumed): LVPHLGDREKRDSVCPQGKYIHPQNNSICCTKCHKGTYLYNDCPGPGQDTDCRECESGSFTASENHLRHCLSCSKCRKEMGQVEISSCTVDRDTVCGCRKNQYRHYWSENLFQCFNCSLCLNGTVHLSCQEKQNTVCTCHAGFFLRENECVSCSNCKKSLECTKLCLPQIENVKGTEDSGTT
Description: (§1) Mutations of the TNF-R1 receptor were made at residues 82Q and 112F in the cavity, which were mutated to 82E and 112E respectively. The structural integrity of the mutant receptor was verified by ligand binding in surface plasmon resonance (SPR) studies. […] TNF-α retained the ability to bind to the mutant receptor, albeit with somewhat reduced affinity. These studies confirm that the test compound bound to a single and specific cavity on wild type TNF-R1.
(§2) Recombinant TNF receptor wild type and mutant were immobilized to the CM5 sensor chip with a surface density of 2,000 resonance units. The binding affinity of TNF-α to TNF-R1 was estimated by BiaCORE 3000 (BiaCORE, Uppsala, Sweden) at 25° C. The apparent rate constants (kon and koff) and the equilibrium binding constant (Kd) for TNF/TNF-R binding interaction were estimated from the kinetic analysis of sensorgrams, using the BIA evaluation 3.0 software (BiaCORE).

mutant TNF-R1 = biological target: T2, mutant TNF-R1 (Homo sapiens, UniProt P19438, F141E/Q111E); assay: Surface plasmon resonance, TNF-α binding to mutant TNF-R1; settings: SPR, mutant TNF-R1 (82E, 112E)
T2 construct: The ectodomain of wild type TNF receptor 1 was obtained by PCR from pKP13; made in house
T2 sequence (P19438 30-211 Q111E/F141E limits assumed): T1 sequence (P19438 30-211 limits assumed) with Q82E, F112E
Description: as §1, §2

L929 cells = assay: Inhibition of TNF-α mediated cytolysis of L929 cells (Alamar Blue); type: cell-based, murine; settings: TNF-α 100 pg/mL, actinomycin D 1 μM; for % Inhibition at: 25 μM: 25 μM compound; for % Inhibition at: 50 μM: 50 μM compound; for % Inhibition at: 100μM: 100 μM compound
Description: L929 cultured murine fibroblasts cells were obtained from American Type Culture Collection (Manassas, Va.). Tissue culture reagents were from Invitrogen or Sigma-Aldrich. TNF-α and Actinomycin D were from Sigma-Aldrich. Alamar Blue reagents (Cell Titer Blue™) were from Promega. The test compounds I-1 through I-16, II-1 through II-8, and III-1 through III-3 were obtained commercially or can be prepared as described above. The test compounds were individually dissolved in dimethylsulfoxide (DMSO). The test compounds were maintained at 4° C. when not in use. Other reagents were high-purity (ACS-grade, HPLC-grade, MilliQ water, or similar).
Stock L929 cells were grown on tissue culture plastic in complete DMEM (Dulbecco's Modified Eagles Medium) supplemented with 10% FBS (Fetal Bovine Serum), NEAA (non-essential amino acids), and glutamine. L929 cells were plated using the same medium on 96-well tissue culture plates at high density (i.e., ˜4×10^4 cells/well, or similar) before use.
Approximately 20 h after plating, the L929 cells on 96-well plates were re-fed with fresh medium containing one of the test compounds in a concentration selected from 100 μM, 50 μM, 25 μM as a “pre-treatment.” Approximately 30-60 min later, samples were treated with an additional amount of test compound (in the same amount and at the same concentration as the pre-treatment) prepared in medium containing TNF-α (200 pg/mL), and actinomycin D (2 μM). The final concentration of TNF-α in assays was 100 pg/mL. The final concentration of actinomycin D in assays was 1 μM. The plates were incubated for an additional 22-23 h, the Alamar Blue assay reagents were added and metabolic cell viability was determined from reduction of a fluorogenic Alamar Blue derivative.
The temperature was maintained at 37° C. with 5% CO2 and humidified. The metabolic viability was measured 1-2 h after addition of assay reagents/Alamar Blue derivative using TECAN SaFire fluorescence plate reader (Tecan Group Ltd., Maennedorf, Switzerland).
Inhibition of TNF-α induced cytolysis by a test compound (X) at a given concentration (y) was calculated as follows: […]

Kd (wild type TNF-R1): 0.379 nM
Kd (mutant TNF-R1): 4650 nM
Compound: TNF-α

Compound: CC(=O)Oc1ccc(C(=NNc2cccc([N+](=O)[O-])c2)c2ccc(OC(C)=O)cc2)cc1 [III-2, 4,4′-Diacetoxybenzophenone-3-nitrophenylhydrazone]
% Inhibition at: 25 μM (L929 cells): 26.9%
% Inhibition at: 50 μM (L929 cells): 42.0%
% Inhibition at: 100μM (L929 cells): −19.8%

Compound: O=C([O-])c1ccccc1C(c1ccc(O)cc1)c1ccc(O)cc1.[K+] [II-7, Potassium 2-[bis-(4-hydroxyphenyl)-methyl]-benzoate]
% Inhibition at: 25 μM (L929 cells): 22.5%
% Inhibition at: 50 μM (L929 cells): 19.1%
% Inhibition at: 100μM (L929 cells): 13.2%

Compound: O=[N+]([O-])c1cccc(NN=C(c2ccc(Cl)cc2)c2ccc(Cl)cc2)c1 [III-3, N-(4,4′-Dichlorobenzhydrylidene)-N-(3-nitrophenyl)hydrazine]
% Inhibition at: 25 μM (L929 cells): 6.6%
% Inhibition at: 50 μM (L929 cells): 3.4%
% Inhibition at: 100μM (L929 cells): 8.1%

Compound: CC(c1ccccc1)(c1ccc(OC(=O)CCl)cc1)c1ccc(OC(=O)CCl)cc1 [Compound I-15, 1,1-Bis-(4-chloroacetoxyphenyl)-1-phenylethane]
% Inhibition at: 25 μM (L929 cells): 29.7%
% Inhibition at: 50 μM (L929 cells): 73.8%
% Inhibition at: 100μM (L929 cells): −19.8%

Compound: COc1ccc(C(C(=O)[O-])(c2ccc(OC)cc2)c2ccc(OC)cc2)cc1.[Na+] [Compound I-5, Sodium 1,1,1-tris-(4-methoxyphenyl)acetate]
% Inhibition at: 25 μM (L929 cells): 1.7%
% Inhibition at: 50 μM (L929 cells): 5.0%
% Inhibition at: 100μM (L929 cells): 12.1%

Compound: COc1ccc([C+](c2ccc(OC)cc2)c2ccc(OC)cc2)cc1 [Compound I-7, 4,4′,4″-Trimethoxytrityl tetrafluoroborate]
% Inhibition at: 25 μM (L929 cells): 15.1%
% Inhibition at: 50 μM (L929 cells): 30.2%
% Inhibition at: 100μM (L929 cells): 25.9%

Compound: CC(=O)Oc1ccc(C2(c3ccc(OC(C)=O)cc3)C(=O)Nc3ccccc32)cc1 [Compound I-16, 3,3-Bis[4-(acetyloxy)phenyl]-1,3-dihydro-2H-indol-2-one]
% Inhibition at: 25 μM (L929 cells): 4.3%
% Inhibition at: 50 μM (L929 cells): 11.5%
% Inhibition at: 100μM (L929 cells): 17.1%

Compound: Cc1cc(C(C)(c2ccc(O)cc2)c2cc(C)c(N)c(C)c2)cc(C)c1N [Compound I-18, 1,1-Bis(4-amino-3,5-dimethylphenyl)-1-(4-hydroxyphenyl)-ethane]
% Inhibition at: 25 μM (L929 cells): 22.6%
% Inhibition at: 50 μM (L929 cells): 36.6%
% Inhibition at: 100μM (L929 cells): 53.8%

Compound: O=C(O)c1ccccc1C1c2ccc(O)cc2Oc2cc(O)ccc21 [II-5, 2-Hydroxy-1,1-bis-hydroxymethyl-ethyl-ammonium; 2-(3,6-dihydroxy-9H-xanthen-9-yl)-benzoate]
% Inhibition at: 25 μM (L929 cells): 25.1%
% Inhibition at: 50 μM (L929 cells): 16.3%
% Inhibition at: 100μM (L929 cells): 21.5%

Compound: CC(=O)Oc1cc2c(cc1Cl)C1(OC(=O)c3ccccc31)c1cc(Cl)c(OC(C)=O)cc1O2 [II-9, 2′,7′-Dichlorofluorescein diacetate]
% Inhibition at: 25 μM (L929 cells): 6.3%
% Inhibition at: 50 μM (L929 cells): 10.5%
% Inhibition at: 100μM (L929 cells): 22.0%

Compound: COC(=O)COc1ccc(C(C)(c2ccc(O)cc2)c2ccc(O)cc2)cc1 [Compound I-11, 1,1-Bis-(4-hydroxyphenyl)-1-(4-methoxycarbonylmethoxyphenyl)ethane]
% Inhibition at: 25 μM (L929 cells): 13.9%
% Inhibition at: 50 μM (L929 cells): 36.7%
% Inhibition at: 100μM (L929 cells): 14.8%

Compound: O=C([O-])c1ccccc1C1c2ccc(O)cc2Oc2cc(O)ccc21.[K+] [II-8, Potassium 2-(3,6-dihydroxy-9H-xanthen-9-yl)-benzoate]
% Inhibition at: 25 μM (L929 cells): 23.6%
% Inhibition at: 50 μM (L929 cells): 24.7%
% Inhibition at: 100μM (L929 cells): 25.6%

Compound: CN(C)c1ccc(C(O)(c2ccc(N(C)C)cc2)c2ccc(N(C)C)cc2)cc1 [Compound I-1, 1,1,1-Tris-(4-dimethylaminophenyl)methanol]
% Inhibition at: 25 μM (L929 cells): 44.0%
% Inhibition at: 50 μM (L929 cells): 63.3%
% Inhibition at: 100μM (L929 cells): 40.9%

Compound: COC(=O)COc1ccc(C(C)(c2ccc(OCC(=O)OC)cc2)c2ccc(OCC(=O)OC)cc2)cc1 [Compound I-4, 1,1,1-Tris-(4-methoxycarbonylmethoxyphenyl)ethane]
% Inhibition at: 25 μM (L929 cells): 18.4%
% Inhibition at: 50 μM (L929 cells): 27.9%
% Inhibition at: 100μM (L929 cells): −11.6%

From patent US9096607B2, “Tumor necrosis factor inhibitors” (THE TRUSTEES OF THE UNIVERSITY OF PENNSYLVANIA, priority 2005, dated 2015)
